Assay results: ChEMBL document CHEMBL3785004, “New antimalarial norterpene cyclic peroxides from Xisha Islands sponge Diacarnus megaspinorhabdosa” (Bioorg Med Chem Lett, 2016)

Legend:
Plasmodium falciparum [1] = assay: Antimalarial activity against chloroquine resistant Plasmodium falciparum W2 after 72 hrs by LDH assay; type: functional, organism-based; conditions: W2, 72 h
Plasmodium falciparum [2] = assay: Antimalarial activity against chloroquine sensitive Plasmodium falciparum D6 after 72 hrs by LDH assay; type: functional, organism-based; conditions: D6, 72 h
[3] = Selectivity index, ratio of IC50 for Vero cells to IC50 for chloroquine resistant Plasmodium falciparum W2; type: toxicity, cell-based; conditions: monkey, read-out: Ratio IC50
[4] = Selectivity index, ratio of IC50 for Vero cells to IC50 for chloroquine sensitive Plasmodium falciparum D6; type: toxicity, cell-based; conditions: monkey, read-out: Ratio IC50

| Compound | IC50 (Plasmodium falciparum [1]) | IC50 (Plasmodium falciparum [2]) | selectivity ratio [3] | selectivity ratio [4] |
| --- | --- | --- | --- | --- |
| C=C1CCCC(C)(C)C1(O)CC/C(C)=C/CC[C@@]1(C)CC[C@H]([C@H](C)C(=O)O)OO1 (some centres undefined) | 4.9 µM | 7.3 µM | 2.4 | 1.6 |
| CC1=C(CC[C@]2(C)CC[C@H]([C@@H](C)C(=O)O)OO2)C(C)(C)CCC1 | 5.5 µM | 8.1 µM | 2.6 | 1.7 |
| C=C1CCCC(C)(C)C1(O)CC/C(C)=C/CC[C@@]1(C)CC[C@H]([C@H](C)C(=O)OC)OO1 (some centres undefined) | 1.6 µM | 2.2 µM | 7 | 5.1 |
| COC(=O)[C@@H](C)[C@H]1CC[C@](C)(CC/C=C(\C)CCC2(O)C(C)CCCC2(C)C)OO1 (some centres undefined) | 4.2 µM | 5.6 µM | 2.6 | 2 |
| COC(=O)[C@@H](C)[C@H]1CC[C@](C)(CC/C=C(\C)CCC2(C)C(C)CCCC2(C)O)OO1 (some centres undefined) | 3 µM | 6.6 µM | 3.7 | 1.7 |
| CC1=C(CC/C(C)=C/CC[C@@]2(C)CC[C@H]([C@H](C)C(=O)O)OO2)C(C)(C)CCC1 | 5.6 µM | 8.6 µM | 2.2 | 1.4 |
| C[C@@H]1CC[C@H]2[C@@H](C)C(=O)O[C@@H]3O[C@@]4(C)CC[C@@H]1[C@]32OO4 [ARTEMISININ] | 0.14 µM |  |  |  |
| COC(=O)[C@H](C)[C@H]1CC[C@@](C)(CCC2=C(C)C(=O)CCC2(C)C)OO1 [DIACARPEROXIDE A] | 1.9 µM | 2 µM | 6.8 | 6.5 |
